The values that follow are results of earlier work, collected in US8202545B2, “Nutraceutical for the prevention and treatment of cancers and diseases affecting the liver” (Canthao Corporation, priority 2003, dated 2012).

One data set has as its system chronic hepatitis. Conditions: chronic hepatitis patients.
In data set [1] the test system is recurrent and second primary hepatomas. The following applies: treated group vs placebo 49%, P=0.04.
[2] abbreviates: latest phase III clinical trial.

As for interferon, the “overall response rate (normalization of liver enzyme levels and reduction of viral load)” value in the data set on chronic hepatitis is “roughly 50%”.

`COc1cccc2c1C(=O)c1c(O)c3c(c(O)c1C2=O)C[C@@](O)(C(=O)CO)C[C@@H]3O[C@H]1C[C@H](N)[C@H](O)[C@H](C)O1` [Doxorubicin]: in the data set on liver cancer (setting [2]), the “median survival of patients treated” value is given as 7 months and the response rate is 11%. Also, the “patients in whom agent is effective” value in the data set with liver cancer (liver cancer patients) is on record as “less than 20%”. For the same molecule, the median survival result in the data set with liver cancer (liver cancer patients (Leung and Johnson 2001)) is “less than 6 months”.

With `CC(C)=CCC/C(C)=C/CC/C(C)=C/C=C/C(C)=C/C(=O)O` [acyclic retinoid, polyprenoic acid], the “incidence of recurrent or new hepatoma” value in data set [1] was 27%.

Take `O=C1O[C@H]([C@@H](O)CO)C(O)=C1O` [ascorbic acid]: the “AFP level in cells” value in the data set with human hepatoma cell (decreased from 302) is reported as 90. Also, the “cellular growth inhibition as compared to controls” value in the data set with human hepatoma cell (human hepatoma cells) is listed as “approximately 60%”.
